For eight molecules, GI50 and TGI results are on record in PubChem BioAssay (NCI).

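48-hour exposure; five concentrations; linearly interpolated endpoints. Abbreviation: GI50, concentration required for 50% inhibition of growth. Definition used: TGI = concentration required for complete inhibition of growth.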 A value given as a limit tells only on which side of the number the result lay.

Some test systems named below: HCC-2998 colon; KM12 colon; HL-60(TB) leukemia; CAKI-1 renal; M14 melanoma; NCI-H23 lung; SK-OV-3 ovarian; SW-620 colon; NCI-H460 lung; UO-31 renal.
Common to all, as to assay: inhibition of tumour cell growth, NCI panel, 48 h

In the case of `C=CCN1C(=O)/C(=c2\sc3n(c2=O)C2C(NN=3)N(CC)C(=O)N2CC)c2ccccc21` (stereo unspecified), the GI50 with HCC-2998 colon is 1280 nM; with KM12 colon, 0.439 µM; with HL-60(TB) leukemia, 315 nM; in the assay on CAKI-1 renal it was 474 nM; in the assay with M14 melanoma it was 0.446 µM; with NCI-H23 lung, 0.88 µM. Further, the results for the GI50 in the assay on SK-OV-3 ovarian, with SW-620 colon and in the assay with NCI-H460 lung were 1.45 µM, 0.423 µM and 413 nM, respectively. Moreover, the TGI in the assay with HCC-2998 colon is greater than 100 µM; with KM12 colon, greater than 100 µM; with HL-60(TB) leukemia, 2.05 µM; in the assay on CAKI-1 renal it was greater than 100 µM; in the assay on M14 melanoma it was greater than 100 µM; with NCI-H23 lung, greater than 50.7 µM. Further, the TGI in the assay on SK-OV-3 ovarian is greater than 23.9 µM; in the assay on SW-620 colon, greater than 100 µM; with NCI-H460 lung it was greater than 100 µM.
On to `Cc1ccc(/C=C(\C#N)n2nnc3cc(Cl)c(Cl)cc32)cc1`, for which the GI50 is 1900 nM with HCC-2998 colon; 3.03 µM in the assay with KM12 colon; 1780 nM with HL-60(TB) leukemia; 1090 nM with CAKI-1 renal; 2.18 µM in the assay on M14 melanoma; 1.59 µM in the assay with UO-31 renal. The values for the GI50 in the assay on NCI-H23 lung, with SK-OV-3 ovarian and in the assay with NCI-H460 lung were 3.36 µM, 3.69 µM and 2430 nM, respectively. The TGI with HCC-2998 colon was 4.12 µM; with KM12 colon it was greater than 100 µM; in the assay on HL-60(TB) leukemia it was 6.94 µM; with CAKI-1 renal, 13.8 µM; with M14 melanoma, 5.66 µM; in the assay on UO-31 renal, 3.35 µM. For the same molecule, the TGI in the assay on NCI-H23 lung was greater than 100 µM; in the assay on SK-OV-3 ovarian it was 91.5 µM; with NCI-H460 lung, 6.52 µM.
In the case of `O=C(NCCCN1CCN(CCCNC(=O)c2cnc3ccccc3n2)CC1)c1cnc2ccccc2n1`, the TGI in the assay with HCC-2998 colon, with KM12 colon, in the assay on HL-60(TB) leukemia, in the assay on CAKI-1 renal, in the assay with M14 melanoma and in the assay on UO-31 renal was greater than 100 µM throughout. Besides, the TGI in the assay on SK-OV-3 ovarian, in the assay on SW-620 colon and with NCI-H460 lung was greater than 100 µM throughout.
Regarding `O=C(N[C@H](c1ccc(Cl)c(Cl)c1)C1CNC1)c1ccc2cnccc2c1`, the GI50 in the assay with HCC-2998 colon is 2060 nM; in the assay on KM12 colon it was 2.34 µM; in the assay with HL-60(TB) leukemia it was 2830 nM; in the assay with CAKI-1 renal, 1840 nM; with M14 melanoma, 4.18 µM; in the assay with NCI-H23 lung, 5.83 µM. The GI50 is 3.26 µM in the assay with SK-OV-3 ovarian, 2.57 µM in the assay with SW-620 colon and 2680 nM with NCI-H460 lung. In addition, the TGI is 6.06 µM in the assay with HCC-2998 colon; 11.9 µM with KM12 colon; 12.8 µM in the assay with HL-60(TB) leukemia; 10.7 µM with CAKI-1 renal; 16.7 µM in the assay with M14 melanoma; 19.6 µM with NCI-H23 lung. Besides, the TGI was 13.1 µM in the assay on SK-OV-3 ovarian, 15.2 µM in the assay on SW-620 colon and 15.4 µM in the assay with NCI-H460 lung.
For `C/C(CC(O)(C(F)(F)F)C(F)(F)F)=N\N`, the TGI with HCC-2998 colon, in the assay with KM12 colon, with HL-60(TB) leukemia, in the assay on CAKI-1 renal, with M14 melanoma and in the assay with NCI-H23 lung was greater than 10 µM throughout. In addition, the TGI in the assay on SK-OV-3 ovarian, in the assay with SW-620 colon and with NCI-H460 lung was greater than 10 µM each time.
Turning to `Cn1cc(-c2csc(-c3c[nH]c4ncccc34)n2)c2cc(Br)cnc21`, the GI50 is greater than 100000 nM with HCC-2998 colon; 5.7 µM with KM12 colon; greater than 100000 nM in the assay on HL-60(TB) leukemia; 1560 nM in the assay with CAKI-1 renal; 4.06 µM in the assay with M14 melanoma; 2.8 µM with NCI-H23 lung. The results for the GI50 with SK-OV-3 ovarian, in the assay with SW-620 colon and with NCI-H460 lung were 3.25 µM, 4.46 µM and 2980 nM, respectively. Also, the TGI in the assay on HCC-2998 colon, in the assay on KM12 colon, with HL-60(TB) leukemia, with CAKI-1 renal, in the assay with M14 melanoma and with NCI-H23 lung was greater than 100 µM in each case. Besides, the TGI in the assay with SK-OV-3 ovarian, with SW-620 colon and in the assay with NCI-H460 lung was greater than 100 µM in each case.
As for `Cc1cc2c3ccccc3n(C)c2c2c1C(=O)c1ccccc1C2=O`, the TGI was 43.6 µM with HCC-2998 colon; greater than 100 µM in the assay on KM12 colon; 27.7 µM in the assay on HL-60(TB) leukemia; 54.8 µM in the assay with CAKI-1 renal; 40.9 µM with M14 melanoma; 27.4 µM in the assay on UO-31 renal. Further, the TGI in the assay with NCI-H23 lung was 44 µM; with SK-OV-3 ovarian, 61.7 µM; in the assay on SW-620 colon, greater than 100 µM.
Consider `C=C1CC[C@@H]2C(C)(C)[C@@H](O)CC[C@@]2(C)[C@@H]1COc1ccc2ccc(=O)oc2c1`, for which the GI50 with HCC-2998 colon is 15200 nM; in the assay on KM12 colon, 12.3 µM; in the assay with CAKI-1 renal, 13400 nM; in the assay with M14 melanoma, 12.5 µM; in the assay on UO-31 renal, 10.2 µM; in the assay on NCI-H23 lung, 13.8 µM. The GI50 in the assay with SW-620 colon was 18.8 µM; in the assay on NCI-H460 lung, 14900 nM. Further, the TGI in the assay with HCC-2998 colon worked out at 31.1 µM; in the assay on KM12 colon, 29.1 µM; in the assay on HL-60(TB) leukemia, 45.6 µM; in the assay on CAKI-1 renal, 55.6 µM; in the assay on M14 melanoma it was 27.2 µM; with UO-31 renal, 22.9 µM. In addition, the TGI was found to be 33.8 µM in the assay on NCI-H23 lung, 44 µM in the assay with SW-620 colon and 32.4 µM in the assay with NCI-H460 lung.
